Each compound was assayed on NL-RLuc virus (HIV) (assay: Inhibition of HIV replication (NL-RLuc luciferase reporter virus in MT-2 cells)). Conditions: Human immunodeficiency virus 1, MT2, 120 h.
Format: cell-based
Source text: Inhibition of HIV Replication
A recombinant NL-RLuc proviral clone was constructed in which a section of the nef gene from NL4-3 was replaced with the Renilla Luciferase gene. This virus is fully infectious and can undergo multiple cycles of replication in cell culture. In addition, the luciferous reporter provides a simple and easy method for quantitating the extent of virus growth and consequently, the antiviral activity of test compounds. The plasmid pNLRLuc contains the proviral NL-Rluc DNA cloned into pUC18 at the PvuII site. The NL-RLuc virus was prepared by transfection of 293T cells with the plasmid pNLRLuc. Transfections were performed using the LipofectAMINE PLUS kit from Invitrogen (Carlsbad, Calif.) according to the manufacturer and the virus generated was titered in MT-2 cells. For susceptibility analyses, the titrated virus was used to infect MT-2 cells in the presence of compound, and after 5 days of incubation, cells were processed and quantitated for virus growth by the amount of expressed luciferase. Assay media was RPMI 1640 supplemented with 10% heat inactivated fetal bovine serum (FBS), 100 units/ml penicillin G/100 units/ml streptomycin, 10 mM HEPES buffer pH 7.55 and 2 mM L-glutamine. The results from at least 2 experiments were used to calculate the EC50 values. Luciferase was quantitated using the Dual Luciferase kit from Promega (Madison, Wis.). Susceptibility of viruses to compounds was determined by incubation in the presence of serial dilutions of the compound. The 50% effective concentration (EC50) was calculated by using the exponential form of the median effect equation where (Fa)=1/[1+(ED50/drug conc.)^m] (Johnson V A, Byington R T. Infectivity Assay. In Techniques in HIV Research. ed. Aldovini A, Walker B D. 71-76. New York: Stockton Press. 1990).
For `Cc1nc(C)c([C@H](OC(C)(C)C)C(=O)O)c(N2CCC(C)(C)CC2)c1-c1ccc2ccncc2c1` [Example 1, (S)-2-(tert-Butoxy)-2-(4-(4,4-dimethylpiperidin-1-yl)-5-(isoquinolin-7-yl)-2,6-dimethylpyridin-3-yl)acetic acid], the EC50 was 47 nM. With `Cc1nc(C)c([C@H](OC(C)(C)C)C(=O)O)c(N2CCC(C)(C)CC2)c1-c1cnc2ccccc2c1` [Example 2, (S)-2-(tert-butoxy)-2-(4-(4,4-dimethylpiperidin-1-yl)-2,6-dimethyl-5-(quinolin-3-yl)pyridin-3-yl)acetic acid] the EC50 was 73 nM. In the case of `Cc1nc(C)c([C@H](OC(C)(C)C)C(=O)O)c(N2CCC(C)(C)CC2)c1-c1ccc2c(c1)OCCO2` [Example 3, (S)-2-(tert-butoxy)-2-(5-(2,3-dihydrobenzo[b][1,4]dioxin-6-yl)-4-(4,4-dimethylpiperidin-1-yl)-2,6-dimethylpyridin-3-yl)acetic acid], the EC50 is reported as 101 nM. With `Cc1nc(C)c([C@H](OC(C)(C)C)C(=O)O)c(N2CCC(C)(C)CC2)c1-c1ccc2cc[nH]c2c1` [Example 4, (S)-2-(tert-butoxy)-2-(4-(4,4-dimethylpiperidin-1-yl)-5-(1H-indol-6-yl)-2,6-dimethylpyridin-3-yl)acetic acid] the EC50 was 233 nM. Work on `Cc1nc(C)c([C@H](OC(C)(C)C)C(=O)O)c(N2CCC(C)(C)CC2)c1-c1ccc2c(c1)CCC2` [Example 5, (S)-2-(tert-butoxy)-2-(5-(2,3-dihydro-1H-inden-5-yl)-4-(4,4-dimethylpiperidin-1-yl)-2,6-dimethylpyridin-3-yl)acetic acid] yielded an EC50 of 56 nM. In the case of `Cc1nc(C)c([C@H](OC(C)(C)C)C(=O)O)c(N2CCC(C)(C)CC2)c1-c1ccc2sc(C(=O)O)cc2c1` [Example 6, (S)-5-(5-(tert-butoxy(carboxy)methyl)-4-(4,4-dimethylpiperidin-1-yl)-2,6-dimethylpyridin-3-yl)benzo[b]thiophene-2-carboxylic acid], the EC50 is reported as 66000 nM. `Cc1nc(C)c([C@H](OC(C)(C)C)C(=O)O)c(N2CCC(C)(C)CC2)c1-c1coc2ccccc12` [Example 7, (2S)-2-(5-(benzofuran-3-yl)-4-(4,4-dimethylpiperidin-1-yl)-2,6-dimethylpyridin-3-yl)-2-(tert-butoxy)acetic acid] was tested, and the EC50 was 288 nM. With `Cc1nc(C)c([C@H](OC(C)(C)C)C(=O)O)c(N2CCC(C)(C)CC2)c1-c1ccc2[nH]c(=O)[nH]c2c1` [Example 8, (S)-2-(tert-butoxy)-2-(4-(4,4-dimethylpiperidin-1-yl)-2,6-dimethyl-5-(2-oxo-2,3-dihydro-1H-benzo[d]imidazol-5-yl)pyridin-3-yl)acetic acid] the EC50 was 7060 nM. Work on `Cc1nc(C)c([C@H](OC(C)(C)C)C(=O)O)c(N2CCC(C)(C)CC2)c1-c1ccc2c(c1)OCCN2C` [Example 9, (S)-2-(tert-butoxy)-2-(4-(4,4-dimethylpiperidin-1-yl)-2,6-dimethyl-5-(4-methyl-3,4-dihydro-2H-benzo[b][1,4]oxazin-7-yl)pyridin-3-yl)acetic acid] yielded an EC50 of 87 nM. With `Cc1nc(C)c([C@H](OC(C)(C)C)C(=O)O)c(N2CCC(C)(C)CC2)c1-c1ccc2c(c1)CCNC2=O` [Example 10, (S)-2-(tert-butoxy)-2-(4-(4,4-dimethylpiperidin-1-yl)-2,6-dimethyl-5-(1-oxo-1,2,3,4-tetrahydroisoquinolin-6-yl)pyridin-3-yl)acetic acid] the EC50 was 307 nM. Work on `Cc1nc(C)c([C@H](OC(C)(C)C)C(=O)O)c(N2CCC(C)(C)CC2)c1-c1ccc2c(c1)CNC2=O` [Example 11, (S)-2-(tert-butoxy)-2-(4-(4,4-dimethylpiperidin-1-yl)-2,6-dimethyl-5-(1-oxoisoindolin-5-yl)pyridin-3-yl)acetic acid] yielded an EC50 of 1680 nM. With `Cc1nc(C)c([C@H](OC(C)(C)C)C(=O)O)c(N2CCC(C)(C)CC2)c1-c1ccc2[nH]c(=O)cc(O)c2c1` [Example 12, (S)-2-(tert-butoxy)-2-(4-(4,4-dimethylpiperidin-1-yl)-5-(4-hydroxy-2-oxo-1,2-dihydroquinolin-6-yl)-2,6-dimethylpyridin-3-yl)acetic acid] the EC50 was 4960 nM. Compound `Cc1nc(C)c([C@H](OC(C)(C)C)C(=O)O)c(N2CCC(C)(C)CC2)c1-c1ccc2c(c1)CN(Cc1ccc(F)cc1)C2=O` [Example 13, (S)-2-(tert-butoxy)-2-(4-(4,4-dimethylpiperidin-1-yl)-5-(2-(4-fluorobenzyl)-1-oxoisoindolin-5-yl)-2,6-dimethylpyridin-3-yl)acetic acid] has an EC50 of 12 nM. `Cc1nc(C)c([C@H](OC(C)(C)C)C(=O)O)c(N2CCC(C)(C)CC2)c1-c1ccc2c(c1)CCN(Cc1ccc(F)cc1)C2=O` [Example 14, (S)-2-(tert-butoxy)-2-(4-(4,4-dimethylpiperidin-1-yl)-5-(2-(4-fluorobenzyl)-1-oxo-1,2,3,4-tetrahydroisoquinolin-6-yl)-2,6-dimethylpyridin-3-yl)acetic acid] gave an EC50 of 6 nM. In the case of `Cc1nc(C)c([C@H](OC(C)(C)C)C(=O)O)c(N2CCC(C)(C)CC2)c1-c1ccc2c(c1)CCN(Cc1nccs1)C2=O` [Example 15, (S)-2-(tert-butoxy)-2-(4-(4,4-dimethylpiperidin-1-yl)-2,6-dimethyl-5-(1-oxo-2-(thiazol-2-ylmethyl)-1,2,3,4-tetrahydroisoquinolin-6-yl)pyridin-3-yl)acetic acid], the EC50 is reported as 14 nM. `Cc1ncsc1CN1CCc2cc(-c3c(C)nc(C)c([C@H](OC(C)(C)C)C(=O)O)c3N3CCC(C)(C)CC3)ccc2C1=O` [Example 16, (S)-2-(tert-butoxy)-2-(4-(4,4-dimethylpiperidin-1-yl)-2,6-dimethyl-5-(2-((4-methylthiazol-5-yl)methyl)-1-oxo-1,2,3,4-tetrahydroisoquinolin-6-yl)pyridin-3-yl)acetic acid] was tested, and the EC50 was 6 nM. For `Cc1nc(C)c([C@H](OC(C)(C)C)C(=O)O)c(N2CCC(C)(C)CC2)c1-c1ccc2c(c1)CCN(Cc1cscn1)C2=O` [Example 17, (S)-2-(tert-butoxy)-2-(4-(4,4-dimethylpiperidin-1-yl)-2,6-dimethyl-5-(1-oxo-2-(thiazol-4-ylmethyl)-1,2,3,4-tetrahydroisoquinolin-6-yl)pyridin-3-yl)acetic acid], the EC50 was 24 nM. Compound `Cc1nc(C)c([C@H](OC(C)(C)C)C(=O)O)c(N2CCC(C)(C)CC2)c1-c1ccc2[nH]c(=O)cc(OCc3ccc(F)cc3)c2c1` [Example 18, (S)-2-(tert-butoxy)-2-(4-(4,4-dimethylpiperidin-1-yl)-5-(4-((4-fluorobenzyl)oxy)-2-oxo-1,2-dihydroquinolin-6-yl)-2,6-dimethylpyridin-3-yl)acetic acid] has an EC50 of 504 nM. For `Cc1nc(C)c([C@H](OC(C)(C)C)C(=O)O)c(N2CCC(C)(C)CC2)c1-c1ccc2c(c1)C(=O)C(Cc1ccc(F)cc1)(Cc1ccc(F)cc1)C(=O)N2` [Example 19, (S)-2-(5-(3,3-bis(4-fluorobenzyl)-2,4-dioxo-1,2,3,4-tetrahydroquinolin-6-yl)-4-(4,4-dimethylpiperidin-1-yl)-2,6-dimethylpyridin-3-yl)-2-(tert-butoxy)acetic acid], the EC50 was 240 nM. For `Cc1nc(C)c([C@H](OC(C)(C)C)C(=O)O)c(N2CCC(C)(C)CC2)c1-c1ccc2c(c1)c(OCc1ccc(F)cc1)cc(=O)n2C` [Example 20, (S)-2-(tert-butoxy)-2-(4-(4,4-dimethylpiperidin-1-yl)-5-(4-((4-fluorobenzyl)oxy)-1-methyl-2-oxo-1,2-dihydroquinolin-6-yl)-2,6-dimethylpyridin-3-yl)acetic acid], the EC50 was 87 nM. In the case of `Cc1nc(C)c([C@H](OC(C)(C)C)C(=O)O)c(N2CCC(C)(C)CC2)c1-c1ccc2c(c1)CN(Cc1ccc(F)cc1)C2` [Example 21, (S)-2-(tert-butoxy)-2-(4-(4,4-dimethylpiperidin-1-yl)-5-(2-(4-fluorobenzyl)isoindolin-5-yl)-2,6-dimethylpyridin-3-yl)acetic acid], the EC50 is reported as 30 nM. With `Cc1nc(C)c([C@H](OC(C)(C)C)C(=O)O)c(N2CCC(C)(C)CC2)c1-c1ccc2c(c1)CN(C(=O)c1ccc(F)cc1)C2` [Example 22, (S)-2-(tert-butoxy)-2-(4-(4,4-dimethylpiperidin-1-yl)-5-(2-(4-fluorobenzoyl)isoindolin-5-yl)-2,6-dimethylpyridin-3-yl)acetic acid] the EC50 was 53 nM. `CCOc1ccc(S(=O)(=O)N2Cc3ccc(-c4c(C)nc(C)c([C@H](OC(C)(C)C)C(=O)O)c4N4CCC(C)(C)CC4)cc3C2)cc1` [Example 23, (S)-2-(tert-butoxy)-2-(4-(4,4-dimethylpiperidin-1-yl)-5-(2-((4-ethoxyphenyl)sulfonyl)isoindolin-5-yl)-2,6-dimethylpyridin-3-yl)acetic acid] gave an EC50 of 17 nM. Compound `COc1ccc(S(=O)(=O)N2Cc3ccc(-c4c(C)nc(C)c([C@H](OC(C)(C)C)C(=O)O)c4N4CCC(C)(C)CC4)cc3C2)cc1` [Example 24, (S)-2-(tert-butoxy)-2-(4-(4,4-dimethylpiperidin-1-yl)-5-(2-((4-methoxyphenyl)sulfonyl)isoindolin-5-yl)-2,6-dimethylpyridin-3-yl)acetic acid] has an EC50 of 10 nM.

Reference: US10407410B2, “Pyridin-3-yl acetic acid derivatives as inhibitors of human immunodeficiency virus replication” (priority 2016, dated 2019)
